For this experiment, the system named is P388 leukemia ip, CD2F1 mice, survival T/C. Kind of experiment: NCI In Vivo Anticancer Drug Screen. Data for tumor model P388 Leukemia (intraperitoneal) in CD2F1 (CDF1) mice. The conditions noted are these: endpoint: median survival time, higher = longer survival. An outline of the steps:
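Mice carrying the transplanted tumor received test compound or vehicle. Survival was recorded in each group, and the value is the treated-group measurement divided by that of the vehicle-treated control group.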

Where [1] appears, read: dose: 60.0 mg/kg/injection, schedule: Q01DX005 (ip), vehicle: saline with Tween-80.
Where [2] appears, read: dose: 120.0 mg/kg/injection, schedule: Q01DX005 (ip), vehicle: saline with Tween-80.
Where [3] appears, read: dose: 240.0 mg/kg/injection, schedule: Q01DX005 (ip), vehicle: saline with Tween-80.
The mark [4] stands for this setting: dose: 50.0 mg/kg/injection, schedule: Q01DX005 (ip), vehicle: Klucel (hydroxypropylcellulose) (HPC).
[5] abbreviates: dose: 50.0 mg/kg/injection, schedule: Q01DX009 (ip), vehicle: saline with Tween-80.
Where [6] appears, read: dose: 100.0 mg/kg/injection, schedule: Q01DX009 (ip), vehicle: saline with Tween-80.
[7] abbreviates: dose: 50.0 mg/kg/injection, schedule: Q01DX009 (ip), vehicle: saline.
Setting [8] is: dose: 6.25 mg/kg/injection, schedule: Q01DX009 (ip), vehicle: saline.
Where [9] appears, read: dose: 12.5 mg/kg/injection, schedule: Q01DX009 (ip), vehicle: saline.

Molecules are shown by their SMILES. Values joined by “and” are separate entries in the source; they are usually repeats but may differ in a detail not shown here. Identical values can stand only once. Toxic doses and inconclusive results are not listed.

As for `CCN(CC)CCSc1cc(C)c2ccc(N)nc2n1`, the T/C by setting is: (dose: 60.0 mg/kg/injection, schedule: Q01DX005 (ip), vehicle: Klucel (hydroxypropylcellulose) (HPC)) 100 % of control; (dose: 120.0 mg/kg/injection, schedule: Q01DX005 (ip), vehicle: Klucel (hydroxypropylcellulose) (HPC)) 106 % of control.

Regarding `CC(C)(C)C(=O)CC(=O)C(F)(F)C(F)(F)C(F)(F)F.CC(C)(C)C(=O)CC(=O)C(F)(F)C(F)(F)C(F)(F)F.CC(C)(C)C(=O)CC(=O)C(F)(F)C(F)(F)C(F)(F)F.[Gd]`, the T/C is 105 % of control under setting [1], 110 % of control under setting [2] and 105 % of control under setting [3].

As to `COc1ccc(C2(O)c3ccccc3C(=O)c3ccccc32)cc1`, the T/C by setting is: under setting [4], 95 % of control; (dose: 100.0 mg/kg/injection, schedule: Q01DX005 (ip), vehicle: Klucel (hydroxypropylcellulose) (HPC)) 96 % of control; (dose: 200.0 mg/kg/injection, schedule: Q01DX005 (ip), vehicle: Klucel (hydroxypropylcellulose) (HPC)) 107 % of control.

On to `O=c1[nH]c2cc([N+](=O)[O-])ccc2nc1/C=C(\O)c1ccncc1`, for which the T/C reads like this: (dose: 60.0 mg/kg/injection, schedule: Q01DX005 (ip), vehicle: Klucel + Tween-80) 94 % of control; (dose: 120.0 mg/kg/injection, schedule: Q01DX005 (ip), vehicle: Klucel + Tween-80) 88 % of control; (dose: 240.0 mg/kg/injection, schedule: Q01DX005 (ip), vehicle: Klucel + Tween-80) 100 % of control.

Take `O=c1oc(-c2cc([N+](=O)[O-])ccc2Cl)nc2ccccc12`: the T/C was 100 % of control (dose: 33.0 mg/kg/injection, schedule: Q04DX003 (ip), vehicle: saline with Tween-80); 100 % of control (dose: 50.0 mg/kg/injection, schedule: Q04DX003 (ip), vehicle: saline with Tween-80); 99 % of control (dose: 75.0 mg/kg/injection, schedule: Q04DX003 (ip), vehicle: saline with Tween-80).

For `CCn1c2ccccc2c2ccc(N=Nc3ccc(N(C)C)cc3)cc21`, the T/C was 111 % of control and 112 % of control and 113 % of control under setting [5]; 108 % of control and 118 % of control under setting [6].

Consider `CC(C)(C)C#CP(C#CC(C)(C)C)C#CC(C)(C)C`, for which the T/C by setting is: (dose: 12.5 mg/kg/injection, schedule: Q04DX003 (ip), vehicle: Klucel (hydroxypropylcellulose) (HPC)) 108 % of control; (dose: 25.0 mg/kg/injection, schedule: Q04DX003 (ip), vehicle: Klucel (hydroxypropylcellulose) (HPC)) 106 % of control; (dose: 50.0 mg/kg/injection, schedule: Q04DX003 (ip), vehicle: Klucel (hydroxypropylcellulose) (HPC)) 111 % of control.

In the case of `C=C(C)CC1C(=O)OC(=O)C1(CC(=C)C)CC(=C)C` (stereo not given), the T/C was 100 % of control under setting [7]; 99 % of control (dose: 100.0 mg/kg/injection, schedule: Q01DX009 (ip), vehicle: saline); 93 % of control (dose: 200.0 mg/kg/injection, schedule: Q01DX009 (ip), vehicle: saline).

Turning to `O=Cc1c[nH]c2ccc(NC(=O)OCc3ccccc3)cc12`, the T/C by setting is: under setting [5], 103 % of control; under setting [6], 89 % of control; (dose: 400.0 mg/kg/injection, schedule: Q01DX009 (ip), vehicle: saline with Tween-80) 86 % of control.

Take `CC1=C(C)C(=O)O[C@@H]([C@](C)(O)[C@]2(O)CC[C@@]3(O)[C@@H]4C[C@H]5O[C@]56[C@@H](O)C=CC(=O)[C@]6(C)[C@H]4CC[C@]23C)C1`: the T/C (dose: 1.0 mg/kg/injection, schedule: Q01DX005 (ip), vehicle: distilled water + Tween-80) is 108 % of control; the T/C (dose: 2.0 mg/kg/injection, schedule: Q01DX005 (ip), vehicle: distilled water + Tween-80) is 122 % of control; the T/C (dose: 4.0 mg/kg/injection, schedule: Q01DX005 (ip), vehicle: distilled water + Tween-80) was 111 % of control and 113 % of control; the T/C (dose: 4.0 mg/kg/injection, schedule: Q01DX005 (ip), vehicle: saline) is 122 % of control; the T/C (dose: 8.0 mg/kg/injection, schedule: Q01DX005 (ip), vehicle: distilled water + Tween-80) is 108 % of control and 113 % of control; the T/C (dose: 16.0 mg/kg/injection, schedule: Q01DX005 (ip), vehicle: distilled water + Tween-80) is 116 % of control. The T/C reads like this: (dose: 16.0 mg/kg/injection, schedule: Q01DX005 (ip), vehicle: saline) 122 % of control; (dose: 16.0 mg/kg/injection, schedule: Q01DX009 (ip), vehicle: saline) 93 % of control; (dose: 32.0 mg/kg/injection, schedule: Q01DX009 (ip), vehicle: saline) 114 % of control.

For the molecule `c1ccc([P+](NCCN[P+](c2ccccc2)(c2ccccc2)c2ccccc2)(c2ccccc2)c2ccccc2)cc1`, the T/C was 97 % of control under setting [8] and 100 % of control under setting [9].

`O=C1NC(Cc2ccccc2)C(=O)N2CSCC12` (stereo not given): the T/C by setting is: (dose: 100.0 mg/kg/injection, schedule: Q01DX001 (ip), vehicle: Klucel (hydroxypropylcellulose) (HPC)) 94 % of control; (dose: 200.0 mg/kg/injection, schedule: Q01DX001 (ip), vehicle: Klucel (hydroxypropylcellulose) (HPC)) 99 % of control; (dose: 400.0 mg/kg/injection, schedule: Q01DX001 (ip), vehicle: Klucel (hydroxypropylcellulose) (HPC)) 105 % of control.

`O=C1CN(CCO)CC(=O)N2Cc3ccccc3CN12`: the T/C is, setting by setting: (dose: 50.0 mg/kg/injection, schedule: Q01DX005 (ip), vehicle: saline with Tween-80) 101 % of control; (dose: 100.0 mg/kg/injection, schedule: Q01DX005 (ip), vehicle: saline with Tween-80) 111 % of control; (dose: 200.0 mg/kg/injection, schedule: Q01DX005 (ip), vehicle: saline with Tween-80) 103 % of control.

Regarding `CC1=CCC[C@@H]2C1(C)CCC(C)[C@@]2(C)CC1=CC(=O)C=CC1=O` (stereo not given in full), the T/C is 99 % of control (dose: 0.62 mg/kg/injection, schedule: Q01DX005 (ip), vehicle: saline with Tween-80); 103 % of control (dose: 1.25 mg/kg/injection, schedule: Q01DX005 (ip), vehicle: saline with Tween-80); 99 % of control (dose: 2.5 mg/kg/injection, schedule: Q01DX005 (ip), vehicle: saline with Tween-80); 98 % of control (dose: 5.0 mg/kg/injection, schedule: Q01DX005 (ip), vehicle: saline with Tween-80); 103 % of control (dose: 10.0 mg/kg/injection, schedule: Q01DX005 (ip), vehicle: saline with Tween-80).

For the molecule `Cc1ccc(S(=O)(=O)c2ccc(Sc3cccc[n+]3[O-])c3nonc23)cc1`, the T/C reads like this: under setting [8], 103 % of control; under setting [9], 116 % of control; (dose: 12.5 mg/kg/injection, schedule: Q01DX009 (ip), vehicle: suspension in saline) 110 % of control; (dose: 25.0 mg/kg/injection, schedule: Q01DX009 (ip), vehicle: saline) 100 % of control; (dose: 25.0 mg/kg/injection, schedule: Q01DX009 (ip), vehicle: suspension in saline) 121 % of control; under setting [7], 103 % of control.

For `COc1c(Cl)c2c(c(OC)c1OC)-c1ccc(OC)c(=O)cc1C(NC(C)=O)CC2` (stereo not given), the T/C by setting is: (dose: 0.78 mg/kg/injection, schedule: Q01DX009 (ip), vehicle: Klucel (hydroxypropylcellulose) (HPC)) 151 % of control; (dose: 1.56 mg/kg/injection, schedule: Q01DX009 (ip), vehicle: Klucel (hydroxypropylcellulose) (HPC)) 179 % of control and 188 % of control; (dose: 3.12 mg/kg/injection, schedule: Q01DX009 (ip), vehicle: Klucel (hydroxypropylcellulose) (HPC)) 199 % of control.

As for `Cc1c(Br)c(Br)nn1C(C)C(=O)N(C)C` (stereo not given), the T/C is, setting by setting: (dose: 50.0 mg/kg/injection, schedule: Q01DX009 (ip), vehicle: Klucel (hydroxypropylcellulose) (HPC)) 110 % of control; (dose: 100.0 mg/kg/injection, schedule: Q01DX009 (ip), vehicle: Klucel (hydroxypropylcellulose) (HPC)) 99 % of control; (dose: 200.0 mg/kg/injection, schedule: Q01DX009 (ip), vehicle: Klucel (hydroxypropylcellulose) (HPC)) 101 % of control.

In the case of `O=C1/C(=N\O)Cc2cc(Cl)ccc21`, the T/C was 101 % of control (dose: 12.0 mg/kg/injection, schedule: Q01DX005 (ip), vehicle: Klucel (hydroxypropylcellulose) (HPC)); 111 % of control (dose: 25.0 mg/kg/injection, schedule: Q01DX005 (ip), vehicle: Klucel (hydroxypropylcellulose) (HPC)); 101 % of control and 97 % of control under setting [4].

Take `COC(=O)/C(C(C)=O)=C(\OC(C)=O)c1ccc(OC)c(OC)c1`: the T/C reads like this: under setting [1], 94 % of control; under setting [2], 100 % of control; under setting [3], 92 % of control.

The record behind these values is PubChem BioAssay AID330 (DTP/NCI, 2004).
